Here are results for one molecule from publication PMC10184130.

In data set [1] the target is T1, human C1r (Homo sapiens, UniProt P00736).
T1 construct: Recombinant human C1r (375–705 aa) fused with both the N-terminal IgG signal peptide; IgG signal peptide (N); His tag (C); made in house; host or cells: HEK293 cells
T1 sequence (P00736 375-705): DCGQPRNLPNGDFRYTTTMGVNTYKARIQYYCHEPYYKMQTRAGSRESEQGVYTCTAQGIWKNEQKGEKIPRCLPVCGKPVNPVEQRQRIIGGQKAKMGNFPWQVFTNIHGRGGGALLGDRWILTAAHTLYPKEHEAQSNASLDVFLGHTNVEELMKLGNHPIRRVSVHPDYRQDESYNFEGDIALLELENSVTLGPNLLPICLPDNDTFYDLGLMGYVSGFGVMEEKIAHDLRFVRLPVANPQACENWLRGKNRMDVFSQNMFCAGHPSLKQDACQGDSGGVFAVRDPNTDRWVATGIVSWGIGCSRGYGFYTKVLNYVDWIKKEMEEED
In words: Human C1r enzyme assay. Type of data set: biochemical. As to conditions: supplementary csv. An excerpt: Recombinant human C1r (375–705 aa) fused with both the N-terminal IgG signal peptide and the C-terminal His tag was expressed in HEK293 cells and purified. Human C1r assay conditions were the same as for human C1s, except that the enzyme solution concentration was 3 nmol/L and the substrate peptide was 250 μmol/L Z-Gly-Arg-SBzl (custom synthesis from Peptide Institute, Osaka, Japan) instead of Z-Lys-SBzl.

Data set [2] addresses T2, human MASP2 (Homo sapiens, UniProt O00187).
T2 construct: Recombinant human MASP2 (298–686 aa) fused with both the N-terminal IgG signal peptide; IgG signal peptide (N); His tag (C); made in house; host or cells: Expi293 cells
The data set is described as follows: Human MASP2 enzyme assay. Type of data set: biochemical. As to conditions: supplementary csv. The protocol: Recombinant human MASP2 (298–686 aa) fused with both the N-terminal IgG signal peptide and the C-terminal His tag was expressed in Expi293 cells and purified. The assay was performed in a 384-well black plate in a total volume of 6 μL of the assay buffer 1. After 20 nL of compound solution was added to the plate, 3 μL of substrate solution containing a 20 μmol/L Z-Gly-Arg-SBzl peptide and 20 μmol/L BES-Thio (FUJIFILM Wako, Osaka, Japan) was added to the plate. Then, 0.6 nmol/L human MASP2 was added to the plate and incubated at room temperature for 60 min. The fluorescence at an excitation wavelength of 485 nm and an emission wavelength of 535 nm was detected using an EnVision multilabel plate reader.

Data set [3] has as its target human kallikrein. The data set is described as follows: Human kallikrein enzyme assay. It is filed as biochemical. Conditions: supplementary csv. The protocol:
Recombinant human kallikrein (R&D Systems, MN, USA) was activated by thermolysin (R&D Systems, MN, USA) prior to use. Compounds were dissolved in DMSO and then diluted in an assay buffer [50 mmol/L Tris–HCl (pH 7.5), 150 mmol/L NaCl, 10 mmol/L CaCl2, and 0.01% (w/v) Tween 20]. After 5 μL of compound solution was added to a 384-well black plate, 5 μL of substrate solution containing 150 μmol/L Pro-Phe-Arg-AMC (Peptide Institute, Osaka, Japan) was added to the plate. Then, 0.42 nmol/L human kallikrein was added to the plate and incubated at room temperature for 60 min. The fluorescence at an excitation wavelength of 380 nm and an emission wavelength of 460 nm was detected using a SpectraMax Paradigm plate reader.

Data set [4] has as its target T3, human plasmin (Homo sapiens, UniProt P00747).
T3 construct: purchased Zedira
The data set is described as follows: Human plasmin enzyme assay. It is filed as biochemical. Conditions: supplementary csv. As to the method: Recombinant human plasmin (Zedira, Hesse, Germany) and the substrate were diluted in an assay buffer [50 mmol/L Tris–HCl (pH 7.5), 150 mmol/L NaCl, and 0.01% (w/v) Tween 20]. Compounds were dissolved in DMSO and then diluted in an assay buffer. After 5 μL of compound solution was added to a 384-well black plate, 5 μL of substrate solution containing 75 μmol/L Boc-Val-Leu-Lys-MCA (Peptide Institute, Osaka, Japan) was added to the plate. Then, 11.25 nmol/L human plasmin was added to the plate and incubated at room temperature for 60 min. The fluorescence at an excitation wavelength of 380 nm and an emission wavelength of 460 nm was detected using an EnVision multilabel plate reader.

In data set [5] the target is T4, Human Multidrug Resistance 1 (MDR-1) Expressing Cells (Homo sapiens, UniProt P08183).
T4 construct: expressed in transfected cells
The data set is described as follows: Membrane permeability with human MDR-1 expressing cells. Type of data set: in vitro ADME. As to conditions: supplementary csv. As to the method: (§1) The transcellular transport study was performed as reported previously.[31] In brief, the cells were grown in an HTS Transwell 96-well permeable support (pore size of 0.4 μm, 0.143 cm^2 surface area) with a polyethylene terephthalate membrane (Corning Life Sciences, Lowell, MA, USA) at a density of 1.125 × 10^5 cells/well. The cells were preincubated with M199 at 37 °C for 30 min. Subsequently, transcellular transport was initiated by the addition of M199 to apical compartments containing 1 μmol/L test compounds and terminated by the removal of each assay plate after 2 h. The aliquots in the opposite compartments were subjected to measurement for compound concentration by LC–MS/MS. Permeability was calculated using the permeated compound concentration.

Data set [6] deals with T5, MDR1 (P-gp) (Homo sapiens, UniProt P08183).
T5 construct: expressed in transfected cells
The description is as above. Conditions: human; MDR1-expressing cells, 1 μmol/L, 2 h. It is filed as in vitro ADME. As to the method:
as §1

T3 sequence (P00747 581-810 limits assumed): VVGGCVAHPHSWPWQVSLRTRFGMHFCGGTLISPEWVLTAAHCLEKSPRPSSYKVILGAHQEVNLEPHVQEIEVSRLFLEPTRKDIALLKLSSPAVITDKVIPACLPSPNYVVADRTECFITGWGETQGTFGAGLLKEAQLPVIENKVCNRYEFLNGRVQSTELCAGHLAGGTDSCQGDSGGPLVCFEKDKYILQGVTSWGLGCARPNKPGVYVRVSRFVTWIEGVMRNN
T2 sequence (O00187 298-686): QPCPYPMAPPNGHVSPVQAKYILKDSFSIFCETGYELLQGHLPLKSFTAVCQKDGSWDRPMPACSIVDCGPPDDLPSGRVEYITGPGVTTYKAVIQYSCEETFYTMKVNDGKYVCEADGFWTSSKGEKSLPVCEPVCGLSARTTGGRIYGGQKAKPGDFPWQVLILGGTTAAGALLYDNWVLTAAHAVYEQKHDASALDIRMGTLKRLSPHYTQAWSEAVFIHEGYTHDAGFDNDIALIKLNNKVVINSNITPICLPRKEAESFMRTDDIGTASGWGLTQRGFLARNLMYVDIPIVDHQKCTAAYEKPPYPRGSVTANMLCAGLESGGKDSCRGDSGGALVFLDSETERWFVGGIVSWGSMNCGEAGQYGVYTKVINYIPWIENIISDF

As for `Cc1cc([C@H]2CN(c3cc(F)c4c(N)nncc4c3)CCN2c2cccc(F)c2)no1` [Compound (R)-8, 8-Fluoro-6-[(3R)-4-(3-fluorophenyl)-3-(5-methyl-1,2-oxazol-3-yl)piperazin-1-yl]phthalazin-1-amine], the IC50 in data set [1], in data set [2], in data set [3] and in data set [4] was > 30 µM throughout. For the same molecule, in data set [5], the “MDR1 (A to B)” value was 14 nm/s. The same molecule returned a Papp A→B at 2 h, 1 μmol/L in data set [6] of 1.4 ×10⁻⁶ cm/s.
